Results reported in patent publication US20260250317A1, “COMPOUND AND USE OF THE SAME” (JAPAN SCIENCE AND TECHNOLOGY AGENCY, priority 2022, published 2026).
Entries after “also recorded” stand apart in the source; their conditions may differ. Starred links: 1 amine or outer side, 2 acyl side, 3 side chain; linkers in the order of their positions; H or OH if unused. Non-standard residues stand in square brackets, D forms with d. Residues, ends and D or L forms follow the SMILES beside them. X1 = O=C(C(Cc1ccc(/N=N/c2ccccc2)cc1)N[*:1])[*:2]

Legend:
[1] = Evaluation of droplet stability (phase-contrast microscope); conditions: 1 wt % compound, 5 wt % DEX550k, 5 wt % PEG35k
Method: A mixed aqueous solution including 5 wt % dextran (550 kDa; DEX550k), 0.002 wt % rhodamine-DEX550k, and 5 wt % polyethylene glycol (35 kDa; PEG35k) was produced in a microtube. Next, the compound (P1) was added to the mixed aqueous solution to be 1 wt % thereof, dissolved, and stirred for 1 minute using a vortex. Due to this, liquid-liquid phase-separated droplets were produced.
Liquid-liquid phase-separated droplets were produced by the same method as in <Droplet Production Example 1>. After production of the droplets, the droplets were left to stand for 24 hours and the state of the droplets was observed using a phase-contrast microscope.
Liquid-liquid phase-separated droplets were produced by the same method as in <Droplet Production Example 1>. After production of the droplets, the droplets were left to stand for 16 days and the state of the droplets was observed using a phase-contrast microscope.

[2] = Reversible gel-sol transition by light irradiation (test tube); assay type: physicochemical
Method: The compound (P1) was dispersed in a D-MEM buffer solution (4 mM HEPES, containing 1 wt % NaHCO3, pH 8.5) to produce a dispersion liquid including 1.0 wt % of the compound (P1). The dispersion liquid was placed in a test tube to observe the gel-sol transition caused by light irradiation. Incubation after the start of light irradiation was performed at 37° C. in a 5% CO2 atmosphere.
This dispersion liquid was placed in a test tube to observe the changes in gelation and solation caused by light irradiation. After the start of light irradiation, incubation was performed at 37° C. in a 5% CO2 atmosphere.

[3] = Droplet fusion and control by light irradiation
Method: A mixed aqueous solution including 5 wt % DEX550k and 5 w % PEG35k was produced in a microtube. Next, the compound (P1) was added to the mixed aqueous solution to be 1 wt % thereof, dissolved, and stirred for 1 minute using a vortex. […] The produced droplets were position-selectively irradiated with 350 nm light for 6 minutes. The droplet dispersion liquid was placed in a transparent cell having a depth of 1 mm and light irradiation was performed using a fluorescence microscope (Olympus IX-73). A U-HGLGPS (brightness: 130 W) was used as the light source for the fluorescence microscope and light was irradiated with a brightness output setting of 25%.
To observe the localization of the compound (P), the compound (P1) was labeled using Cy5. A mixed aqueous solution including 5 wt % dextran (550 kDa; DEX550k) and 5 wt % polyethylene glycol (35 kDa; PEG35k) was produced in a microtube. Next, the Cy5-labeled compound (P1) was added to the mixed aqueous solution to be 1 wt % thereof, dissolved, and stirred for 1 minute using a vortex. […] The droplets were irradiated with 350 nm light for 5 seconds. The droplet dispersion liquid was placed in a transparent cell having a depth of 1 mm and light irradiation was performed using a fluorescence microscope (Olympus IX-73). A U-HGLGPS (brightness: 130 W) was used as the light source for the fluorescence microscope and light was irradiated with a brightness output setting of 25%. Before and after light irradiation, the droplets were observed using a phase-contrast microscope (Olympus IX-73 connected to a phase-contrast light source) and a fluorescence microscope (Olympus IX-73 connected to a fluorescence light source U-HGLGPS).
A mixed aqueous solution including 5 wt % dextran (550 kDa; DEX550k) and 5 wt % polyethylene glycol (35 kDa; PEG35k) was produced in a microtube. Next, the labeled compound (P1) was added to the mixed aqueous solution to be 1 wt % thereof, dissolved, and stirred for 1 minute using a vortex. […] The droplets were subjected to any of the following light irradiation operations (1) to (3). The light irradiation was performed in the same manner as described above. • (1) No light irradiation. • (2) Irradiation with 350 nm light for 5 seconds. • (3) Irradiation with 350 nm light for 5 seconds, followed by irradiation with 550 nm light for 5 seconds.
The droplets were observed under a phase-contrast microscope before and after carrying out the light irradiation operation under the above-described conditions. In (1), an image “before carrying out the light irradiation operation” was taken and then an image “after carrying out the light irradiation operation” was taken within 1 minute. No light irradiation was performed between “before carrying out the light irradiation operation” and “after carrying out the light irradiation operation”. In (2), an image “after carrying out the light irradiation operation” was taken immediately after 5 seconds of irradiation with 350 nm light. In (3), 350 nm light was irradiated for 5 seconds, immediately followed by irradiating 550 nm light for 5 seconds, and an image “after carrying out the light irradiation operation” was taken immediately after the 550 nm light was irradiated for 5 seconds.
A mixed aqueous solution including 5 wt % DEX550k and 5 w % PEG35k was produced in a microtube. Next, the compound (P2) was added to the mixed aqueous solution to be 1 wt % thereof, dissolved, and stirred for 1 minute using a vortex. […] The produced droplets were irradiated with 350 nm light for 5 seconds. The droplet dispersion liquid was placed in a transparent cell having a depth of 1 mm and light irradiation was performed using a fluorescence microscope (Olympus IX-73).

[4] = TEM analysis of dispersion liquid; assay type: physicochemical; conditions: 1.0 wt % dispersion, irradiated with 450 nm light
Method: (§1) This dispersion liquid was incubated for 3 days in a dark place at 37° C. in a 5% CO2 atmosphere. Thereafter, the dispersion liquid was irradiated with 450 nm light and analyzed with a transmission electron microscope (JEOL JEM-1400).
as §1, with “nm or 550 nm” for “nm”, “absorption spectrum analysis was performed by infrared absorption spectroscopy analysis (IR) (JASCO FTIR-6100) and analysis was performed using” for “analyzed with”

[5] = Photoresponsiveness (UV-vis absorption spectrum after light irradiation); assay type: physicochemical; conditions: 1 wt % dispersion in D-MEM with 4 mM HEPES, 25° C.; P1: 350 nm / 450 nm; P3: 540 nm / 450 nm
Method: The compound (P1) was dispersed in a D-MEM buffer solution including 4 mM HEPES to produce a dispersion liquid including 1 wt % of the compound (P1). This dispersion liquid was placed in a transparent cell having a depth of 1 mm and irradiated with light using a fluorescence microscope (Olympus IX-73). A U-HGLGPS (brightness: 130 W) was used as the light source for the fluorescence microscope and light was irradiated with a brightness output setting of 25%. The absorption spectrum and circular dichroism (CD) spectrum of the dispersion liquid after light irradiation were measured by ultraviolet-visible light spectroscopy. The measurements were performed at room temperature (25° C.).
This dispersion liquid was irradiated with 450 nm or 550 nm light and the absorption spectrum was analyzed by ultraviolet-visible spectroscopy (UV-vis) (JASCO V-650 spectrophotometer). Measurements were performed at room temperature (25° C.).

[6] = Rheological evaluation (storage modulus G' and loss modulus G'', rotational rheometer); assay type: physicochemical; conditions: trans form, 1.0 wt % in D-MEM buffer pH 8.5, incubated 3 days at 37° C. in dark
Method: The trans form of the compound (P1) was dispersed in a D-MEM buffer solution (4 mM HEPES, containing 1 wt % NaHCO3, pH 8.5) to produce a dispersion liquid including 1.0 wt % of the compound (P1). This dispersion liquid was incubated for 3 days in a dark place at 37° C. in a 5% CO2 atmosphere. Thereafter, the storage modulus G′ and loss modulus G″ were measured using a rotational rheometer (Malvern Panalytical, Kinexus lab+).
This dispersion liquid was incubated for 3 days in a dark place at 37° C. in a 5% CO2 atmosphere. The storage modulus G′ and loss modulus G″ were then measured using a rotational rheometer (Malvern Panalytical, Kinexus lab+).

[7] = 1 wt % compound, 350 nm light for 5 seconds

state of dispersion liquid at start of light irradiation, cis form ([2]; 1.0 wt % in D-MEM buffer pH 8.5, 0 min)	state of dispersion liquid at start of light irradiation, trans form ([2]; 1.0 wt % in D-MEM buffer pH 8.5, 0 min / before irradiation)	state of trans-form dispersion liquid after 350 nm light ([2]; 1.0 wt %, 350 nm light for 15 minutes, 37° C., 5% CO2)	state of cis-form dispersion liquid after 450 nm light ([2]; 1.0 wt %, 450 nm light for 15 minutes, 37° C., 5% CO2)	state of droplet dispersion liquid before irradiation with 350 nm light ([3]; Cy5-labeled compound, 1 wt %)	state of droplet dispersion liquid after irradiation with 350 nm light ([3]; Cy5-labeled compound, 1 wt %, 350 nm light for 5 seconds)	structure in TEM image, trans form [4]	gel formation (G' versus G'') [6]	SMILES	time for which droplets were stably maintained ([1]; left to stand 24 hours) [h]	time after which droplets were still stably maintained ([1]; left to stand 16 days) [days]	change of droplets after 350 nm light [3, 7]	droplet fusion in light irradiated spot ([3]; 1 wt % compound, position-selective 350 nm light for 6 minutes)	change of droplets after 350 nm then 550 nm light ([3]; 1 wt % labeled compound, 350 nm light 5 seconds, then 550 nm light 5 seconds)	change of droplets, no light irradiation ([3]; 1 wt % labeled compound, operation (1) no light irradiation)	photoisomerization of azobenzene structure on light irradiation [5]
underwent solation	underwent gelation	underwent solation	underwent gelation	gel state	sol state	formed a structure in a fibrous state	a gel was formed	CSCCC(NC(=O)C(CCCNC(=N)N)NC(=O)C(C)NC(=O)C(CC(=O)O)NC(=O)C(Cc1ccc(/N=N/c2ccccc2)cc1)NC(=O)C(CCCNC(=N)N)NC(C)=O)C(=O)NC(CCCNC(=N)N)C(N)=O (stereo not shown) [Compound (P1)] (Ac-R[X1]DARMR-NH2; configuration not given here)	≥ 24	≥ 16	droplets which were larger than before the light irradiation were observed; also recorded: the size of the droplets significantly increased	a larger droplet was formed	the number of droplets decreased and the size of the droplets increased	no change was seen in the size of the droplets	reversibly isomerized from the trans form to the cis form and from the cis form to the trans form
								CSCCC(NC(=O)C(CCCNC(=N)N)NC(C)=O)C(=O)NC(CC(=O)O)C(=O)NC(C)C(=O)NC(CCCNC(=N)N)C(=O)NC(Cc1ccc(/N=N/c2ccccc2)cc1)C(=O)NC(CCCNC(=N)N)C(N)=O (stereo not shown) [Compound (P2)] (Ac-RMDAR[X1]R-NH2; configuration not given here)			larger droplets were formed				
